Data: patent EP0799188B1, “AMIDES OF MONO AND DICARBOXYLIC ACIDS WITH GLYCOSAMINES, SELECTIVELY ACTIVE ON THE CANNABINOID PERIPHERAL RECEPTOR” (LIFEGROUP S.p.A., priority 1994, dated 1996)
Read-outs that look alike come from different tables or passages of the source.

Tests used:
[1] = system: RBL-2H3 cells; experiment: 3H-serotonin release induced by ADNP/DNP.HSA immunogenic stimulation; type: cell-based, rat; settings: for inhibition at 12.5 µM: RBL-2H3, 12.5µM, -WIN; for effect on serotonin release (RBL cells immunogenic activation): statement in words on Table 3
[2] = water solubility
[3] = solubility in organic solvents; type: physicochemical; settings: organic solvent or mixture, read-out: solubility in org. sol.
[4] = Rattus norvegicus, RBL-2H3, DMSO 0.2%, 100µM
[5] = Rattus norvegicus, RBL-2H3, DMSO 1%, 100µM
[6] = Rattus norvegicus, RBL-2H3, concentration inhibiting by 50% the net release of 3H serotonin, 0.2% DMSO, 15 minutes release period, means ± SEM, read-out: EC50
[7] = Rattus norvegicus, RBL-2H3, concentration inhibiting by 50% the net release of 3H serotonin, 1% DMSO, 15 minutes release period, means ± SEM, read-out: EC50
[8] = phosphate buffer, pH 7.4, aqueous buffer
[9] = Rattus norvegicus, read-out: 3H-serotonin net release inhibition (%)
[10] = Rattus norvegicus, RBL-2H3, read-out: ED50 (µm)

In the case of `CCCCCCCCCCCC(=O)N[C@@H](CO)C(=O)O` [Example 2, N-lauroyl-L-serine], the inhibition at 100 µM [1, 4] is reported as 79%, the inhibition at 100 µM [1, 5] is reported as 61% and the water solubility [2] is reported as “slightly soluble”. For the same compound, the solubility ([2]; water) was > 10000 µg/mL, the solubility ([3]; in DMSO) was > 10000 µg/mL and the solubility ([3]; in ethanol) was > 10000 µg/mL.

For `CCCCCCCC/C=C\CCCCCCCC(=O)N[C@@H](CO)C(=O)O` [Example 3, N-oleoyl-L-serine], the water solubility [2] was “slightly soluble” and the solubility ([3]; in DMSO) was > 10000 µg/mL.

With `CCCCCCCCCCCC(=O)N[C@@H](CO)C(=O)OC` [Example 5, N-lauroyl-L-serine methylester] the inhibition at 100 µM [1, 5] was 61%, the EC50 [1, 6] was 104 ± 59 µM and the water solubility [2] was “slightly soluble”. The solubility ([3]; in DMSO) was > 10000 µg/mL and the solubility ([3]; in ethanol) was > 10000 µg/mL.

For `CCCCCCCCCCCCCCCC(=O)N[C@@H](CS)C(=O)O` [Example 6, N-palmitoyl-L-cysteine], the inhibition at 60 µM ([1]; Rattus norvegicus, RBL-2H3, DMSO 0.2%, 60µM) was 50%, the inhibition at 100 µM [1, 5] was 91% and the EC50 [1, 7] was 29 ± 12 µM. The water solubility [2] was “slightly soluble” and the solubility ([3]; in DMSO) was > 10000 µg/mL.

With `CCCCCCCCCCCC(=O)NCC(=O)O` [Example 8, N-lauroyl-glycine] the inhibition at 100 µM [1, 4] was 93%, the inhibition at 100 µM [1, 5] was 100% and the EC50 [1, 6] was 10 ± 1.5 µM. The EC50 [1, 7] was 7 ± 5 µM, the water solubility [2] was “slightly soluble” and the solubility [2, 8] was > 10000 µg/mL. The solubility ([3]; in DMSO) was > 10000 µg/mL and the solubility ([3]; in ethanol) was > 10000 µg/mL.

With `CCCCCCCCCCCC(=O)NCC(=O)OC` [Example 9, N-lauroyl-glycine methylester] the inhibition at 100 µM [1, 4] was 55%, the water solubility [2] was “slightly soluble” and the solubility ([3]; in DMSO) was > 10000 µg/mL. The solubility ([3]; in ethanol) was > 10000 µg/mL.

In the case of `CCCCCCCCCCCCCCCC(=O)NCCC(=O)O` [Example 10, N-palmitoyl-β-alanine], the inhibition at 100 µM [1, 4] is reported as 47%, the EC50 [1, 7] is reported as 30 µM and the water solubility [2] is reported as “slightly soluble”. The solubility ([3]; in DMSO) was > 5000 µg/mL and the solubility ([3]; in ethanol) was > 5000 µg/mL.

In the case of `CCCCCCCCCCCCCCCC(=O)NCCCC(=O)O` [Example 11, N-palmitoyl-gamma-aminobutyric acid], the EC50 [1, 6] is reported as 26 ± 18 µM, the water solubility [2] is reported as “slightly soluble” and the solubility ([3]; in DMSO) is reported as > 5000 µg/mL. For the same compound, the solubility ([3]; in ethanol) was > 5000 µg/mL.

In the case of `O=C(CCCCCCCC(=O)NC(CO)C(=O)O)NC(CO)C(=O)O` (centres unmarked) [Example 12, N,N' -bis-(1-carboxy-2-hydroxyethyl)-nonandiamide], the water solubility [2] is reported as “slightly soluble”, the solubility ([2]; water) is reported as > 10000 µg/mL and the solubility ([3]; in DMSO) is reported as > 10000 µg/mL. For the same compound, the solubility ([3]; in ethanol) was > 10000 µg/mL.

For `O=C(O)CNC(=O)/C=C/CCCCCCCCC(=O)NCC(=O)O` [Example 13, N,N'-trans-2-dodecendioyl-diglycine], the inhibition at 100 µM [1, 5] was 54%, the water solubility [2] was “slightly soluble” and the solubility ([2]; water) was > 10000 µg/mL. For the same compound, the solubility ([3]; in DMSO) was > 10000 µg/mL.

For `CCCCCCCCCCCC(=O)N1CC(O)C[C@H]1C(=O)O` (stereo partly drawn) [Example 17, N-lauroyl-4-hydroxy-L-proline], the water solubility [2] was “slightly soluble”, the solubility [2, 8] was > 10000 µg/mL and the solubility ([3]; in DMSO) was > 10000 µg/mL. The solubility ([3]; in ethanol) was > 10000 µg/mL.

In the case of `CCCCCCCCCCCCCCCC(=O)NCCO` [N-(2-hydroxyethyl)-hexadecanamide, reference compound], the “3H-serotonin net release (%)” value ([1]; 100µM, 1% DMSO and 1% ethanol) is reported as 0% and the EC50 ([1]; Rattus norvegicus, RBL-2H3, inhibition of serotonin release, 1% DMSO and 1% ethanol, read-out: ED50 (µm)) is reported as 2.6 µM.

For `CCCCC/C=C\C/C=C\CCCCCCCC(=O)NCCO` [N-(2-hydroxyethyl)-linoleylamide, reference compound], the “3H-serotonin net release (%)” value ([1]; 100µM, 0.1% DMSO and 0.1% ethanol) was 100%.

`CCCCC/C=C\C/C=C\C/C=C\C/C=C\CCCC(=O)O` [arachidonic acid, reference compound] showed an inhibition at 12.5 µM [1, 9] of 4%.

`NCCO` [ethanolamine, reference compound] gave an inhibition at 12.5 µM [1, 9] of 6%.

With `CCCCCc1cc(O)c2c(c1)OC(C)(C)[C@@H]1CCC(C)=C[C@@H]21` [Δ9-THC, Δ9-tetrahydrocannabinol, reference compound] the “3H-serotonin net release (%)” value ([1]; 25µM, 0.1% DMSO and 0.1% ethanol) was 27%, the EC50 [1, 10] was 5 µM and the inhibition at 25 µM ([1]; Rattus norvegicus, RBL-2H3, 25µM, -anandamide, read-out: 3H-serotonin net release inhibition (%)) was 73%. For the same compound, the EC50 ([1]; Rattus norvegicus, RBL-2H3, read-out: ED50 (the source's name)) was 5 µM and the “effect on serotonin release (RBL cells immunogenic activation)” value [1] was “able to inhibit, in a concentration-dependent way”.

`CCCCCc1cc(O)c2c(c1)OC(C)(C)C1CC=C(C)CC21` (centres unmarked) [Δ 8-THC, Δ8-tetrahydrocannabinol, reference compound] gave an inhibition at 25 µM ([1]; Rattus norvegicus, RBL-2H3, read-out: 3H-serotonin net release inhibition (%)) of 100%, an EC50 ([1]; Rattus norvegicus, RBL-2H3, read-out: ED50 (µM)) of 5 µM and an EC50 [1, 10] of 5 µM. The “effect on serotonin release (RBL cells immunogenic activation)” value [1] was “able to inhibit, in a concentration-dependent way”.
